Data on three compounds can be found in the NIST ThermoML archive (doi:10.1021/je800087p).

SMILES strings stand for the structures. Numbers after ± are expanded uncertainties.

For series [1] the following is noted: Liquid; Ebulliometric method (Recirculating still).
Series [2] can be described thus: refractive index (Na D-line) (dimensionless). Conditions: 298.15 K; 101.3 kPa; Liquid; Standard Abbe refractometry.

As usually defined, the refractive index is the speed of light in vacuum divided by its phase velocity in the sample. As to `CC(C)c1ccccc1` [isopropylbenzene], the Normal boiling temperature in series [1] came to 152.48 ± 0.1 °C. Further, the refractive index in series [2] was found to be 1.48829 ± 0.00053.

Turning to `C1CCOC1` [tetrahydrofuran], the Normal boiling temperature in series [1] was 66.1 ± 0.1 °C. Further, the refractive index in series [2] is 1.40443 ± 0.0005.

Regarding `C1CCOCC1` [tetrahydropyran], in series [1], the Normal boiling temperature worked out at 88.16 ± 0.1 °C. Also, in series [2], the refractive index was 1.41899 ± 0.00063.
